Consider 13 molecules from article PMC7205193, “Crystal structure of the mitochondrial protein mitoNEET bound to a benze-sulfonide ligand” (Communications chemistry, 2019).

What is called IC50 is the concentration that inhibits the measured activity by half. Broadly, the Kd is the constant that tells how readily two partners part at equilibrium. The term melting point denotes the temperature, or range, at which the solid turns liquid.

“And” between values parts separate entries of the source, which are not always exact repeats. Identical values can stand only once. “Also recorded” adds a separate entry of the source.

Data set [1] has as its target T1, mitoNEET (Homo sapiens, UniProt Q9NZ45).
T1 sequence (Q9NZ45 32-108 limits assumed): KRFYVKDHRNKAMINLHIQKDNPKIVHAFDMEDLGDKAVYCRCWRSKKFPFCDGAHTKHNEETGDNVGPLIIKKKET
As to the kind of experiment: [3H]rosiglitazone displacement binding assay (SPA). The conditions noted are these: 20 nM [3H]rosiglitazone, 60 min, room temperature, 50 mM Tris pH 8; ± std error. How it is done: Recombinant mitoNEET was attached to nickel scintillation proximity assay (SPA) beads, and incubated with 20 nM [^3H] rosiglitazone (PerkinElmer) for 60 min at room temperature. The binding buffer was 50 mM Tris pH 8. White clear bottom 96-well plates were used for the assay, and the counts per minute analyzed in a MicroBeta Counter (Perkin Elmer). Data were analyzed as fraction of the total binding using a one-site model with GrapPad Prism 6 statistical software.

Data set [2] has as its system N2A mouse neuronal cells. As to the kind of experiment: Seahorse bioenergetics mitochondrial stress test. It is filed as cell-based. The note with it: 20 μM, three hours, vs DMSO vehicle. On the procedure: Mitochondrial bioenergetics were evaluated by the use of the Seahorse 96-well plate reader. Cells were grown in specialty plates from the company, at 20,000 cells per well of N2A mouse neuronal cells. The cells were treated with compounds at 20 μM for three hours, and then a mitochondrial stress test (Seahorse Biosciences) done using compounds which affect mitochondrial function, including oligomycin, FCCP, rotenone, and antimycin A.

Data set [3] has as its target T1, mitoNEET. As to the kind of experiment: Surface plasmon resonance. The note with it: SPR, PBST pH 7.4, 1% DMSO, 25 °C, one-to-one binding model; read-out: equilibrium dissociation constant Kd. Background: In SPR one partner is held on a chip, and binding of the other changes the refractive index at the surface.
Protocol: Experiments were performed using Reichert4SPR refractometer system (Reichert Technologies, Depew, NY, USA) equipped with a dextran SPR sensor chip (Reichert carboxymethyl dextran P/N 13206066). Acetate buffer was used for immobilization of the protein MN (ligand). […] Data analysis were performed with TraceDrawer software. Final Kd values were determined by fitting to a one-to-one binding model.
The target in data set [4] is T2, mitoNEET [2Fe-2S] cluster (Homo sapiens, UniProt Q9NZ45).
T2 sequence (Q9NZ45 with tags, fused parts or gaps): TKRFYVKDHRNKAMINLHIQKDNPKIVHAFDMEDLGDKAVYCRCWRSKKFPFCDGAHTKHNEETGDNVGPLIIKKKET
As to the kind of experiment: Iron-sulfur cluster release assay. It is filed as biochemical. The note with it: 20 μM, pH 6.5, absorbance at 458 nm, room temperature. On the procedure:
This method was adapted as previously described. MitoNEET was prepared as described earlier and a stock of 4 mg/mL was used in the assay, in a 50 mM Tris buffer pH 8. […] In each well 80 μL of the appropriate buffer, with either vehicle or compound, and then mitoNEET protein was added at 20 μL. The 96-well plate was analyzed in a BioTek Synergy 4 plate reader, reading at 458 nm for a period of time, at room temperature. For the pH 8, we used 50 mM Tris pH 8, with 100 mM NaCl, and for the pH 6.5, we used the 50 mM Bis–Tris pH 6.5 with 100 mM NaCl buffer solution.

For data set [5], the target named is T1, mitoNEET. As to the kind of experiment: Pull-down capture assay with furosemide probe on streptavidin beads. The conditions noted are these: 0–100 μM furosemide, N2A cell lysate with recombinant mitoNEET, 100 μM probe, Western blot. It is filed as binding. How it is done:
For the ELISA assay, streptavidin plates (Pierce) were incubated for 30 min with a dose-dilution of the probe, after which an equal amount of recombinant mitoNEET protein was placed into the wells. After 2 h incubation at 4 °C, the plate was washed with a wash buffer with PBS pH 7.4 containing 0.05% Tween-20. The amount of mitoNEET was determine using a mitoNEET primary antibody (ProteinTech) 1:1000, followed by secondary anti-rabbit horseradish peroxidase antibody 1:2000 for 1 h. Detection of the color was done at 450 nm after addition of 3,3′,5,5′-tetramethylbenzidine solution and stopping solutions (Pierce). For the capture assay, N2A cells were lysed and collected with radio-immunoprecipitation assay buffer. […] At the end of the experiment, a magnetic tube rack was used to attract the magnetic beads. The solutions were washed with PBST (pH 7.4, 0.05% Tween-20), boiled for 5 min, and run on a BioRad 4–20% gel for Western Blot analysis (mitoNEET primary antibody 1:1000 and secondary HPR 1:2000).
A general note: Immunoblotting shows a protein as a band on a membrane.

Data set [6] concerns recombinant mitoNEET (mitoNEET-His protein). Also on record: method as in PMID 27687671. The note with it: read-out: IC50, binding to mitoNEET; cited from earlier work.
Data set [7] in a line: Dynamic light scattering aggregate formation. The conditions noted are these: 20 μM in PBS pH 7.4. It is filed as physicochemical. How it is done: This stock solution was diluted into PBS pH 7.4 to a final concentration of 20 μM, and the evaluated using a Malvern DLS Nano-ZS-90 system (Malvern Instruments).
Data set [8] concerns the molecule itself. As to the kind of experiment: crystal structure; mitoNEET (20 mg/ml) with equimolar furosemide, sitting drop vapor diffusion, 60% v/v Tacsimate pH 7.0; 1.95 Å; MR-SAD with PDB 3REE as search model.

`NS(=O)(=O)c1cc(C(=O)O)c(Cl)cc1Cl` [compound 1, 2,4-dichloro-5-sulfamoylbenzoic acid, reference compound]: in data set [1], the IC50 was determined as 1021 ± 0.96 µM.
`NS(=O)(=O)c1cc(C(=O)O)c(NCc2ccccc2)cc1Cl` [2l]: the IC50 in [1] is 20.7 µM and 20.8 µM. In data set [2], the ATP-linked oxygen consumption entry is given as “increase”, the “basal respiration (oxygen consumption rate)” value (“basal respiration” below) was “increase” and the maximal respiration entry was “increase”.
For `CCCCCCNc1cc(Cl)c(S(N)(=O)=O)cc1C(=O)O` [2d], the IC50 in data set [1] came out at 9.12 ± 1.04 µM.
The same measure, in the same setting: next, `NS(=O)(=O)c1cc(C(=O)O)c(NCc2ccc(F)cc2)cc1Cl` [2n]: 8.82 ± 1 µM.
Turning to `NS(=O)(=O)c1cc(C(=O)O)c(NCc2ccco2)cc1Cl` [Furosemide, furosemide], the Kd in data set [3] worked out at 53.5 µM. The “iron-sulfur cluster release from mitoNEET” value in data set [4] is “able to slow down cluster release”; in data set [4] (listed as furosemide), “able to reduce cluster loss”. Further, the “mitoNEET captured by furosemide probe in presence of competitor” value in data set [5] was “dose-dependently the reduction of mitoNEET captured; also recorded: able to reduce the amount of mitoNEET captured”. The IC50 in data set [6] is ~40 µM; in [1] it was 29.3 ± 0.97 µM. Moreover, in data set [2], the “basal respiration” value is “increase”. The maximal respiration result in [2] was “increase”. Besides, the proton leak result in data set [2] was “trended to increase”. The “aggregate formation in solution (DLS)” value in data set [7] is “did not observe any aggregate formation”.
With `CCCNc1cc(Cl)c(S(N)(=O)=O)cc1C(=O)O` [2a], the IC50 in data set [1] was 81 µM and 81.4 µM.
Same read-out and setting: next, `CCCCCNc1cc(Cl)c(S(N)(=O)=O)cc1C(=O)O` [2c]: 54.3 ± 0.92 µM; `CCCCNc1cc(Cl)c(S(N)(=O)=O)cc1C(=O)O` [2b]: 42.6 ± 1.03 µM.
The same measure, in the same setting: next, `NS(=O)(=O)c1cc(C(=O)O)c(NCc2cccs2)cc1Cl` [2p]: 12.4 ± 1.23 µM; `CCCCC/C=C\C/C=C\C/C=C\C/C=C\CCCC(=O)O` [Arachidonic acid, reference compound]: 2.93 ± 1.06 µM.
Molecule `CCCCCCCCNc1cc(Cl)c(S(N)(=O)=O)cc1C(=O)O` [2f] registered a melting point of 184 to 185 °C. Further, the IC50 in [1] was 6.2 µM and 6.24 µM. Also, in data set [2], the ATP-linked oxygen consumption result is listed as “increase”, the “basal respiration” value is given as “increase” and the maximal respiration result is given as “increase”.
In data set [1], `CCCCCCCNc1cc(Cl)c(S(N)(=O)=O)cc1C(=O)O` [2e] returned an IC50 of 19.8 ± 0.9 µM.

B1: soluble domain of human mitoNEET (domain or fragment)
chain: TKRFYVKDHRNKAMINLHIQKDNPKIVHAFDMEDLGDKAVYCRCWRSKKFPFCDGAHTKHNEETGDNVGPLIIKKKET
notes: mitoNEET (gene cisd1), human, soluble domain; Each subunit holds a [2Fe-2S] cluster (His87 and three cysteines); also called mN; MN; source: E. coli Rosetta 2 (DE3), purified (Ni-NTA, SUMO protease digestion, second Ni-NTA, size exclusion chromatography); not shown: His-SUMO, N-terminal, cleaved
Turning to B1, the binding result in data set [8] is on record as “binds”.
